Reference: ChEMBL document CHEMBL5154942, “Discovery of Clinical Candidate NTQ1062 as a Potent and Bioavailable Akt Inhibitor for the Treatment of Human Tumors” (J Med Chem, 2022)

Columns and labels:
[1] = Metabolic stability in Crab eating monkey liver microsomes assessed hepatic clearance at 1 uM measured after 60 mins by LC-MS/MS analysis; assay type: ADME, Macaca fascicularis, Microsome; conditions: cynomolgus monkey, 1 h
[2] = AUC (0 to infinity) in crab-eating monkey at 6 mg/kg, ig by UPLC-MS/MS analysis; assay type: ADME, organism-based, Macaca fascicularis; design: time infinity, dose 6 mg/kg, route ig; conditions: cynomolgus monkey, in vivo, po
[3] = molecular target: Protein kinase C eta type (Homo sapiens) (UniProt P24723); assay: Inhibition of PKCeta (unknown origin) at 1 uM in presence of ATP at Km concentration by mobility shift assay relative to control
[4] = AUC (0 to t) in Sprague-Dawley rat at 5 mg/kg, iv measured upto 24 hrs by UPLC-MS/MS analysis; assay type: ADME, organism-based; design: time < 24 hrs, dose 5 mg/kg, route iv; conditions: in vivo
[5] = Oral bioavailability in overnight fasted ICR mouse at 10 mg/kg measured upto 24 hrs by UPLC-MS/MS analysis; assay type: ADME, organism-based; conditions: in vivo
[6] = Cmax in crab-eating monkey at 6 mg/kg, ig by UPLC-MS/MS analysis; assay type: ADME, organism-based, Macaca fascicularis; design: dose 6 mg/kg, route ig; conditions: cynomolgus monkey, in vivo, po
[7] = Metabolic stability in CD-1 mouse liver microsomes assessed hepatic clearance at 1 uM measured after 60 mins by LC-MS/MS analysis; assay type: ADME, Microsome; conditions: 1 h
[8] = Metabolic stability in Beagle dog liver microsomes assessed as intrinsic clearance at 1 uM measured after 60 mins by LC-MS/MS analysis; assay type: ADME, Canis lupus familiaris, Microsome; conditions: 1 h
[9] = AUC (0 to t) in NCG mouse xenografted with human LNCaP cells at 12.5 mg/kg administered daily once for 18 to 21 days and measured upto 10 hrs post last dose by LC-MS/MS analysis; assay type: ADME, organism-based; conditions: in vivo
[10] = molecular target: Protein kinase C theta type (Homo sapiens) (UniProt Q04759); assay: Inhibition of PKCtheta (unknown origin) at 1 uM in presence of ATP at Km concentration by mobility shift assay relative to control
[11] = Cmax in Sprague-Dawley rat at 10 mg/kg, ig by UPLC-MS/MS analysis; assay type: ADME, organism-based; design: dose 10 mg/kg, route ig; conditions: in vivo, po
[12] = Half life in Sprague-Dawley rat at 10 mg/kg, ig by UPLC-MS/MS analysis; assay type: ADME, organism-based; conditions: in vivo, po
LNCaP = assay: Induction of apoptosis in human LNCaP cells assessed as necrotic cells at 1.25 uM incubated for 72 hrs by annexin V/PI double staining based flow cytometry method (reference value: 2.41%); assay type: functional

Chain of Protein kinase C eta type (Homo sapiens) (P24723 whole entry): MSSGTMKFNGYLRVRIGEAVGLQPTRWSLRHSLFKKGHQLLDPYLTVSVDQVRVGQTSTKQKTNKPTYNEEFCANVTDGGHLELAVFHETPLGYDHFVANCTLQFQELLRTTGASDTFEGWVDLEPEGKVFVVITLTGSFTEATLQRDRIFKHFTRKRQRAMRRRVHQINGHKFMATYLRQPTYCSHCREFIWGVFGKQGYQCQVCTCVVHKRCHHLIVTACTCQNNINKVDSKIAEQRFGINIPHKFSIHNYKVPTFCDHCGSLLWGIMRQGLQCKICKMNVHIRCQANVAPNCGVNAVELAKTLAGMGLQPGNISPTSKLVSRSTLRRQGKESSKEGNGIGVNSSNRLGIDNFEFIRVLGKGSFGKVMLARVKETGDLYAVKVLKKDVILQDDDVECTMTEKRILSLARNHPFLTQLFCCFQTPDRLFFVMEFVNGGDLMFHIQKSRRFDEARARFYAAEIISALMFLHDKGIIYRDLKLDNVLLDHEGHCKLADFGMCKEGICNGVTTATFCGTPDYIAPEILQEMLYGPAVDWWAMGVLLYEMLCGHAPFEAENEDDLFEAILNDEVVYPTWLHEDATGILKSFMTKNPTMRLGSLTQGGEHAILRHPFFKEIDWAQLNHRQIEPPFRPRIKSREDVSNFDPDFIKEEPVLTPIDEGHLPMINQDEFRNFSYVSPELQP
Chain of Protein kinase C theta type (Homo sapiens) (Q04759 whole entry, looked up): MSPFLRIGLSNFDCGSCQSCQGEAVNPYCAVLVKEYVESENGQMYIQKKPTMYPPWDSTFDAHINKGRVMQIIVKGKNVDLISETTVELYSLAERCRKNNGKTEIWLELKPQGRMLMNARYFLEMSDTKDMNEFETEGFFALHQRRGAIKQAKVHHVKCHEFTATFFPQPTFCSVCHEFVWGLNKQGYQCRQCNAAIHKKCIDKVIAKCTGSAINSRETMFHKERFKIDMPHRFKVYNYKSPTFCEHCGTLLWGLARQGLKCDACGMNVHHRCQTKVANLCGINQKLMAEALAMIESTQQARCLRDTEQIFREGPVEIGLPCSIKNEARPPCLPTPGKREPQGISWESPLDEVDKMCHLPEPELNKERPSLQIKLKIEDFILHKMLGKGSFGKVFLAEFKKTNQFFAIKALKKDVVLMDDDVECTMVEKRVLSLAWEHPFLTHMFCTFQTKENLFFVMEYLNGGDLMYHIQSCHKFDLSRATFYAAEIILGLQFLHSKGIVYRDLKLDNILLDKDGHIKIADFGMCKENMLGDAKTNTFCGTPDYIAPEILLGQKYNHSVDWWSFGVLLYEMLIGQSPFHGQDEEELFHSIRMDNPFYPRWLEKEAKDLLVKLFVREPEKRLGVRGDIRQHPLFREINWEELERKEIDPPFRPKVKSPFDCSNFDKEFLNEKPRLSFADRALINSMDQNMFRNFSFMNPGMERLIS

CLH [1]: 25.2 µL/min/kg | AUC(0-inf) [2]: 1680 ng·h/mL | inhibition [3]: 90% | AUC(0-t) at 24 h [4]: 1760 ng·h/mL | bioavailability [5]: 29.7% | Cmax [6]: 237 ng/mL | CLH [7]: < 12.7 µL/min/kg | CLH [8]: 21 µL/min/kg | AUC(0-t) [9]: 7030 ng·h/mL | inhibition [10]: 90% | Cmax [11]: 705 ng/mL | half-life [12]: 197 min
Structure (SMILES): CC(C)NC[C@@H](C(=O)N1CCN(c2ncnc3c2[C@H](C)CC(=O)N3)[C@H]2C[C@H]21)c1ccc(Cl)cc1
Activity (LNCaP): 4.92%
